Measurements published in patent publication US9561220B2, “Group of alkaloids, the novel autophagic enhancers for treatment of cancers and neurodegenerative conditions thereof” (Macau University of Science and Technology, priority 2014, dated 2017).

Tested on: panel of human cancer cells (HeLa, MCF-7, HepG2, Hep3B, H1299, A549, PC3)
Assay: cells
Assay type: cell-based
Settings: Homo sapiens, 72 h, read-out: mean IC50 value (cell cytotoxicity)
Description: The test compounds of liensinine, isoliensinine, dauricine, cepharanthine, hernandezine and thalidezine were dissolved in DMSO at a final concentration of 100 mmol/L and stored at −20° C. Cytotoxicity was assessed using the 3-(4,5-dimethylthiazol-2-yl)-2,5-diphenyltetrazolium bromide assay as described previously. 4000-8000 HeLa (human cervical cancer), MCF-7 (human breast cancer), HepG2 (human liver cancer), Hep3B (human liver cancer), H1299 (human lung cancer), A549 (human lung cancer), PC3 (human prostate cancer) and LO2 (human normal liver) cells were seeded on 96-well plates per well. After overnight pre-incubation, the cells were exposed to different concentrations of liensinine, isoliensinine, dauricine, cepharanthine, hernandezine and thalidezine (0.039-100 μmol/L) for 3 days. Specifically, the following concentrations are used for all of the above alkaloids: […], 0.039 μmol/L. Subsequently, 10 μL of MTT reagents was added to each well and incubated at 37° C. for 4 hours followed by the addition of 100 μL solubilization buffer (10% SDS in 0.01 mol/L HCl) and overnight incubation. Absorbance at 585 nm was determined from each well on the following day. The percentage of cell viability was calculated using the following formula: Cell viability (%)=Cells number treated/Cells number DMSO control×100. Data was obtained from three independent experiments.

COc1ccc2cc1Oc1ccc(cc1)C[C@H]1c3c(cc4c(c3Oc3cc5c(cc3OC)CCN(C)[C@@H]5C2)OCO4)CCN1C [cepharanthine]
IC50: 4.52 to 61.8 µM
